Patent publication US20250032488A1, “METHODS OF TREATMENT USING LOU064” (NOVARTIS AG, priority 2021, published 2025)
pIC50: −log10 of the molar value.

Legend:
LAD2 cells = experiment: FcER-induced mast cell degranulation in LAD2 cells; format: cell-based; conditions: Homo sapiens, n=3, read-out: IC50, IgE/FcER-induced mast cell degranulation (β-tryptase)
Excerpt: Rationale and method: The human mastocytosis cell line LAD2 expresses FcERI and upon crosslinking of the receptor the cells degranulate and release inflammatory mediators like β-tryptase and hexosaminidase (Wernersson et al. 2014, Immunology; 14 (7): 478-94). The assay involves 4-hydroxy-3-iodo-5-nitrophenylacetic acid (NIP) haptenized bovine serum albumin (BSA) and the NIP-specific chimeric IgE antibody JW8 (Neuberger, M.S. et al. (1985), Nature 314 (6008), pp 268-70. doi: 10.1038/314268a0). The LAD2 cells were sensitized with JW8 IgE antibody and then incubated with serial compound dilutions for 30 minutes at 37° C. Then degranulation was triggered by adding haptenized NIP-BSA to crosslink the FcER. After one hour, supernatants were collected and analyzed for B-tryptase levels.

[1] = Co-administration with oral contraceptives; format: in vivo
Excerpt: Therefore, in a preferred embodiment, LOU064 is co-administered with oral contraceptives.

BALB/c mice = experiment: Ovalbumin induced anaphylaxis mouse model: BALF cell counts; format: in vivo; conditions: 10 mg/kg, 30 mg/Kg p.o. B.I.D., OVA-sensitized mice with poly I:C
Procedure: This experiment was carried out to investigate the anti-inflammatory effect of LOU064 (10 mg and 30 mg/Kg in OVA-sensitized mice instilleed with polyinosine-polycytidylic acid (poly I: C).
Mice were actively sensitised with ovalbumin (15 μg, s.c.) and 25 μL of Imject Alum on days 0, 7 and 14. In order to elicit a local inflammatory response in the lung, mice were repeatedly exposed on days 21-24 with an aerosol of 1% w/v ovalbumin in phosphate buffered saline (PBS), generated with an ultrasonic nebuliser (Aerogen) for 20 min. 16 h after the final exposure to OVA on day 24, polyinosine-polycytidylic acid (poly I: C, 100 μg/animal) or the vehicle (PBS) was delivered intratracheally with a Microsprayer (model IA-1C with FMJ-250 high pressure syringe, Penn-Century) under anaesthesia with ketamine (100 mg/Kg, i.p.) and xylazine (10 mg/Kg, i.p.). […]
24 h after the final OVA challenge, blood samples were collected by venepuncture into pre-chilled Li Hep tubes. […] The cell pellets were then re-suspended in 1.6 mL of phosphate buffered saline and the BAL cells were then analysed for total and differential numbers. Total and differential cell counts of the BAL fluid samples were measured using a XT-2000iV analyser (Sysmex). […]

BTK = target: T1, BTK (Mus musculus, UniProt P35991); experiment: BTK occupancy in spleen, PCA study; format: in vivo, mice; conditions: 2.5 hours after second oral dose, read-out: BTK occupancy in spleen relative to vehicle controls
T1 construct: each spleen was crushed and lysed in a GentleMACS; from tissue; host or cells: mouse spleen (BALB/c, C57Bl6) and lung (C57Bl6)
Procedure: The levels of BTK occupancy after dosing of LOU064 was determined in separate ELISAs for total BTK protein and for bound BTK (=free BTK).
Covalent binding of compounds to BTK was determined with immunoassays for free BTK (i.e., not covalently occupied by compound) and total BTK protein. For free BTK measurements, samples were incubated with a biotinylated covalent BTK probe (Pulz R et al, ACS Med. Chem. Lett. 2019, 10, 1467-1472) then samples were added to streptavidin ELISA plates to allow binding of probe-bound BTK. The binding of the probe to BTK is mutually exclusive with compound binding to BTK. Plate-bound BTK was detected with an anti-BTK antibody (D3H5, Cell Signaling Technology). For total BTK measurements, an ELISA plate was coated with D3H5 anti-BTK to capture total BTK. An anti-BTK antibody (no. 53, BD Biosciences) directed to a different epitope was then used to detect captured BTK. The respective free BTK levels for each sample were normalized to the total BTK level in the same sample, and these ratios were expressed as percentage of the vehicle control samples. […]
The relative BTK occupancy was calculated as the ratio of free BTK (signal of bound BTK) to total BTK for each sample: Ri=free BTK/total BTK. The individual Ri values were then normalized to the vehicle group and expressed as percent occupancy: (average of Ri vehicle group-Ri)/(average of Ri vehicle group)*100%

T1 sequence (P35991 whole entry): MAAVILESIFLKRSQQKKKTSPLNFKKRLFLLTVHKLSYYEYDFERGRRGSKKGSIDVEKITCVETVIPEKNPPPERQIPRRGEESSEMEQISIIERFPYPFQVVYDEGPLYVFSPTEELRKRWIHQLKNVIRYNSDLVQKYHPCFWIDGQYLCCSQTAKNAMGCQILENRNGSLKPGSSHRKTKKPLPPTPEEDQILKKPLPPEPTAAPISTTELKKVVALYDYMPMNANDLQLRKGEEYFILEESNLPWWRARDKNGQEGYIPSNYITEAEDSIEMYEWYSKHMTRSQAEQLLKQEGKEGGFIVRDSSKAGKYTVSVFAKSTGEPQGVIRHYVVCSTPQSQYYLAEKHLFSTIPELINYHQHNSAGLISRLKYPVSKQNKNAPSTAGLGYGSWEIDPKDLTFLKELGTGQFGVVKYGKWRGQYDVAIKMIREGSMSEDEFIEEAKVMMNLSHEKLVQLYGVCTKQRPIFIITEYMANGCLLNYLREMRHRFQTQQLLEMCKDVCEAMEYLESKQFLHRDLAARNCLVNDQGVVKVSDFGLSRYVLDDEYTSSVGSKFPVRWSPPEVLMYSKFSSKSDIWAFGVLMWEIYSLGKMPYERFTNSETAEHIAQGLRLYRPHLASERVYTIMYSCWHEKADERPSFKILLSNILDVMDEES

## C=CC(=O)N(C)CCOc1c(N)ncnc1-c1cc(F)cc(NC(=O)c2ccc(C3CC3)cc2F)c1C [LOU064, N-(3-(6-amino-5-(2-(N-methylacrylamido)ethoxy)pyrimidin-4-yl)-5-fluoro-2-methylphenyl)-4-cyclopropyl-2-fluorobenzamide]
LAD2 cells
  pIC50: 8.15
[1]
  Impact on exposure and efficacy of oral contraceptives (ethinylestradiol or levonorgestrel): without a major impact
BALB/c mice
  Numbers of cells involved in lung anaphylaxis (BALF): significantly reduced
BTK
  receptor occupancy at 3 mg/kg: 89.1%
